The values below come from US7439223B2, “Nucleophosmin/B23-binding peptide to inhibit tumor growth and regulate transcriptional activity of p53” (Chang Gung University, priority 2005, dated 2008).

In series [1] the test system is nucleophosmin/B23 over-expressed cells. Put plainly: cytotoxic effect on nucleophosmin/B23 over-expressed cells.
Series [2] relates to Ras-3T3 cells. Put plainly: cytotoxic effect of peptides on Ras-3T3 cell viability. Type of series: cell-based. The following applies: for effect on cellular viability: 25 to 400 μM. The method, then: (§1) Regarding the cells and antibodies, MGH-U1 was established from a Grade III bladder transitional cell carcinoma. U1 and Ras-3T3 cells were grown in RPMI 1640 medium supplemented with 10% fetal bovine serum and 1% antibiotics in 5% CO2 humidified incubator at 37° C. The number of viable cells was determined by trypan blue exclusion and counted with a hemocytometer. Antinucleophosmin/B23 mAb, Anti-p53 polyclonal antibody (pAb) and anti-GAPDH were provided.
Rev-NLS (Rev), T-NLS and np-NLS peptides were synthesized. The primary sequences of the peptides and the dissociation constants of their interactions with nucleophosmin/B23 are shown in FIG. 4. Rev, T-NLS, and np-NLS peptides were applied to Ras-3T3 cells in parallel experiments at concentrations ranging from 25 to 400 μM.
In summary a review of the Figures is given. FIGS. 1A-1D, illustrate Nucleophosmin/B23-binding peptide inhibits tumor growth of Ras-3T3 cells and tumors in nude mice. […] After 24 hours of exposure, cells were counted and survival was expressed as the percentage of surviving cells relative to the untreated cells. Data represent means ±standard deviations; n=3. […] The colonies were stained and scored 12 days after seeding and the efficiencies were calculated as the percentage relative to the untreated cells. Values were expressed as the means ± standard deviations for three determinations. […] Mean tumor volume ±standard deviation for each treatment group was plotted (n=5). Statistical differences in tumor volumes were determined by Student's t-test. […] Tumor volumes of Rev- and PBS-treated (control) mice were plotted (n=5). A Student's t-test was used for statistical analysis. Results shown are representative of three independent experiments.

The test system of series [3] is tumors induced by Ras-3T3 cells. Put plainly: nude mouse xenograft assay, intraperitoneal treatment. Type of series: in vivo, nude mice. The conditions noted are these: 10 mg/20 g body weight intraperitoneally once daily for 14 days, vs PBS. The method, then: Exponentially growing Ras-3T3 cells were harvested, washed and resuspended in PBS at 3×10^6 cells/ml. Tumor xenografts were established by inoculating one hundred microliters (100 μl) of the cell suspension subcutaneously into the right flanks of the nude mice. To assay the antitumor activity of Rev, T-NLS, and np-NLS peptides, they were administered to tumors as a systemic intraperitoneal or as a local subcutaneous treatment. For intraperitoneal treatment, mice were randomized into 4 groups of 5 animals after grafting.
Animals were treated once daily for 14 days beginning 48 hr after the inoculation of Ras-3T3 cells. […] Three-dimensional measurements were taken with electric caliper and the tumor volumes were calculated using the formula, V=4πxyz/3, where 2x, 2y and 2z were the three perpendicular diameters of the tumor. […] Statistical differences in the tumor volumes were analyzed by the student's t-test. […]
Next, a nude mouse xenograft assay was used to evaluate the antitumor effect of peptides on the growth of tumors induced by Ras-3T3 cells. […] During the course of treatment, tumor growth was monitored daily by caliper measurement.
In summary a review of the Figures is given. […] After 24 hours of exposure, cells were counted and survival was expressed as the percentage of surviving cells relative to the untreated cells. […]

Another series has as its target nucleophosmin/B23. The following applies: cited from earlier work.
For a further series, the system named is U1 bladder cancer cells. Put plainly: U1 bladder cancer cell viability. The conditions noted are these: 24 hr, alone, read-out: concentration required to produce a 50% decrease in cell viability. Type of series: cell-based. The method, then:
as §1
U1 (3×10^5) cells were treated with doxorubicin (DOX, 0.032-1.0 μg/ml). […] After 24 hr of exposure, cells were counted and survival was expressed as the percentage of surviving cells relative to the untreated cells. […] The relative tumor volumes were expressed as percentages of the initial volumes at first day of treatments. *p<0.05, as compared with control mice. […]
(§2) FIGS. 3A-3F illustrate Nucleophosmin/B23 regulates the increase in protein expression of p53. […] Total cell lysates were analyzed by western immunoblotting using antibodies specific for p53 and GAPDH. […] Total cell lysates were analyzed by Western immunoblotting using antibodies specific for nucleophosmin/B23, p53 and GAPDH. […] After 3 hours, cells were harvested and were analyzed by Western immunoblotting using antibodies specific for p53 and GAPDH. […] The cell extracts containing equal amounts of proteins were analyzed for CAT activity and luciferase activities. […]

Series [4] deals with Ras-3T3 cells. The series is described as follows: tumor growth in nude mice, DOX, Rev or DOX+Rev subcutaneously adjacent to the tumors. Type of series: in vivo. The conditions noted are these: 20 μg/20 g body weight subcutaneously adjacent to the tumors daily for 5 days. Here is the method: Doxorubicin (DOX), an anthracycline anti-tumor antibiotic, is active against a number of human cancers.
U1 (3×10^5) cells were treated with doxorubicin (DOX, 0.032-1.0 μg/ml). […] After 24 hr of exposure, cells were counted and survival was expressed as the percentage of surviving cells relative to the untreated cells. Data represent means ±standard deviations; n=3. In FIG. 2D, each mouse was inoculated with 3×10^5 Ras-3T3 cells (one site/mouse). […] Tumor volumes of DOX (20 μg/20 g body weight), Rev (1 mg/20 g body weight), DOX (10 μg/20 g body weight)+Rev (0.5 mg/20 g body weight) and PBS-treated (control) mice were plotted (n=5). The relative tumor volumes were expressed as percentages of the initial volumes at first day of treatments. *p<0.05, as compared with control mice. A Student's t-test was used for statistical analysis. Results shown are representative of three independent experiments.

The test system of series [5] is p53. The series is described as follows: p53 expression level by western blotting in U1 cells. Type of series: cell-based. The conditions noted are these: 25-150 μM for 3 hours or 50 μM for 0.2-7 hours. The method, then: p53 protein is known to suppress tumor formation in vivo at least in part through its ability to induce cell death. The susceptibility of tumor cells to induction of cell death by cytotoxic drugs is modulated by p53 in many cases. It is then important for us to test whether the anti-tumor activity of nucleophosmin/B23-binding peptide is mediated through a p53 dependent regulation. […] The expression levels of p53 were measured by western blotting. […] In parallel, we transfected cells with a plasmid containing the luciferase reporter gene under the control of an artificial p53 target promoter (pGL13). […] Moreover, we analyzed whether the level of p53 changes upon siRNA mediated reduction of the intracellular amount of nucleophosmin/B23. […]
as §2

Series [6] relates to p53. Put plainly: p53-dependent luciferase reporter (pGL13) in U1 cells. Type of series: cell-based. The following applies: 50-150 μM for 3 hours. An excerpt: pp53-TA-Luc contains a p53 response element, located upstream of the minimal TA promoter, the TATA box from the herpes simplex virus thymidine kinase promoter (PTA). Located downstream of PTA is the firefly luciferase reporter gene. Double stranded siRNA oligonucleotides against B23, siB23-297 (sense: 5′-[…]; and antisense: […]), and siB23-191 (sense 5′-[…] and antisense: […]) were synthesized. Two oligonucleotides were annealed and cloned into pSilencer™ siRNA expression vector by EcoR1 and Apa1.
Transfections were performed using Lipofectamine™ Reagent method. Before transfection, cells (2×10^5 per well) were seeded in 6-well plates overnight. […]
p53 protein is known to suppress tumor formation in vivo at least in part through its ability to induce cell death. […] The expression levels of p53 were measured by western blotting. […] Moreover, we analyzed whether the level of p53 changes upon siRNA mediated reduction of the intracellular amount of nucleophosmin/B23. […]
FIGS. 3A-3F illustrate Nucleophosmin/B23 regulates the increase in protein expression of p53. […] Total cell lysates were analyzed by western immunoblotting using antibodies specific for p53 and GAPDH. […] Total cell lysates were analyzed by Western immunoblotting using antibodies specific for nucleophosmin/B23, p53 and GAPDH. […] The cell extracts containing equal amounts of proteins were analyzed for CAT activity and luciferase activities. […]
On the technique in general: In a reporter assay the amount or activity of a reporter protein is the signal.

pIC50, pKd: −log10 of the molar value. Converted amounts (≈) assume the structure as drawn. Ends that are not written are not given here.

As to ARRNRRRRWREYC-NH2 [Rev peptide], in series [1], the “dose needed to exert similar cytotoxic effect” value is given as “higher doses”.

On to PKKKRKVEDPYC [T-NLS, PKKKRKVE DPYC], for which the “effect on cellular viability” value in the series on Ras-3T3 cells [2] is listed as “little or virtually no effect”. In the series on Ras-3T3 cells [2] (read-out: concentration at which there was a 50% decrease in cell viability), the pIC50 is about 3.00. The “inhibition of tumor growth” value in series [3] is 63.6%. The pKd on nucleophosmin/B23 (read-out: kd of interaction with nucleophosmin/B23) is 6.08.

Turning to `COc1cccc2c1C(=O)c1c(O)c3c(c(O)c1C2=O)C[C@@](O)(C(=O)CO)C[C@@H]3O[C@H]1C[C@H](N)[C@H](O)[C@H](C)O1` [DOX, Doxorubicin], the IC50 with U1 bladder cancer cells came out at 0.08 µg/mL (≈ 0.147 µM). In addition, in the series on Ras-3T3 cells [4], the “tumor growth versus PBS control” value is “grew more slowly”.

As to “KRPAATKKAGQAKKKKYC (listed as Homo sapiens) [np-NLS]”, in the series with Ras-3T3 cells [2], the “effect on cellular viability” value is “little or virtually no effect”. The activity against cells entry in the series with Ras-3T3 cells [2] (at 1 mM (data not shown)) is “no activity”. For the same compound, in series [3], the “inhibition of tumor growth” value is on record as “No inhibition of tumor growth”. Besides, the “intracellular amount of p53 (protein expression)” value in the series with p53 [5] was “No such increases”. Besides, the “increase in p53-dependent transcription from the pGL13 promoter” value in the series on p53 [6] is given as “No such increases”. For the same compound, the “binding affinity toward nucleophosmin/B23” value in the series with nucleophosmin/B23 (in words) is “no binding affinity”.
